Measured values as given in PMC9697446 (International Journal of Molecular Sciences, 2022).

Experiments:
[1] = biological target: AChE (Homo sapiens, UniProt P22303); experiment: Kinetic analysis of AChE inhibition, steady-state inhibition constants; format: biochemical; conditions: for AChE inhibition constant αKi (noncompetitive component) / Ki: Lineweaver–Burk analysis; for Ki: read-out: AChE inhibition constant Ki (competitive component); for Mechanism of AChE inhibition: Lineweaver–Burk double reciprocal plot
Chain of AChE (P22303 32-588 isoform P22303-2): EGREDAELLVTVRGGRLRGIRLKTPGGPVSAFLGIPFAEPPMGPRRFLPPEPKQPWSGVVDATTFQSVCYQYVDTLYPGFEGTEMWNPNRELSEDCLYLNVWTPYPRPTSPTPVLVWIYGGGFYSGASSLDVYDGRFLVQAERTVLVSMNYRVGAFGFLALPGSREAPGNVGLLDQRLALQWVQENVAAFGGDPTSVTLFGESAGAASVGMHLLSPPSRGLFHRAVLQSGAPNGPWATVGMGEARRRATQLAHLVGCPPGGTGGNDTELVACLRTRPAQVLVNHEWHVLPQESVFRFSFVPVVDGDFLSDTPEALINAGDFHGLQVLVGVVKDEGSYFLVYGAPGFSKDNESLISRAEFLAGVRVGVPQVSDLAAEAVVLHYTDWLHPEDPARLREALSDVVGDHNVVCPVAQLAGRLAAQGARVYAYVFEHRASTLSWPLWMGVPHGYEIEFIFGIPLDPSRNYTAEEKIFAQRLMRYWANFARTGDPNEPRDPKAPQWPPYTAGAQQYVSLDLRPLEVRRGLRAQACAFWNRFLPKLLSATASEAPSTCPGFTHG
Method: . The results were analyzed using the Lineweaver–Burk double reciprocal plot, and the graphical analysis of the kinetic data is shown in Figure 1. […]. To elucidate the inhibition mechanisms for the active compounds, the residual activity of AChE was determined in the presence of three increasing concentrations of the test compounds and six decreasing concentrations of the substrates. The test compounds were preincubated with the enzyme at 25 °C for 5 min, followed by the addition of the substrates. Parallel controls were made for an assay of the rate of hydrolysis of the same concentrations of substrates in the solutions with no inhibitor. The kinetic parameters of substrate hydrolysis were determined. Measurements were performed with a FLUOStar Optima microplate reader. Each experiment was performed in triplicate.

[2] = biological target: T1, NMDA receptor intrachannel site ([3H]MK-801) (Rattus norvegicus, UniProt P35439); experiment: Radioligand binding, [3H]MK-801 site of the NMDA receptor
T1 construct: from tissue; host or cells: rat brain membranes
Method: (§1) The experiments were carried out using a rat brain membrane fraction.
(§2) The effect of test compounds on the radioligand binding to NMDA receptors was determined as previously described. Two radioactive ligands were used: [^3H] […] A pellet of rat brain membrane specimen was resuspended in a working buffer (5 mM HEPES/4.5 mM Tris buffer, pH 7.6) in a ratio of 1:5 and stored in liquid nitrogen. The reaction mixture (with a final volume of 0.5 mL) contained 200 µL of the working buffer, 50 µL of 50 nM radioligand solution, and 250 µL of the membrane suspension. Nonspecific binding was determined in the presence of 50 µL of […] of unlabeled ligand.
(§3) For the binding study, the reaction mixture was incubated at room temperature for 2 h. After incubation, the samples were filtered through GF/B glass-fiber filters (Whatman), washed with the working buffer, dried, and transferred to scintillation vials, and then 5 mL of scintillation fluid was added to the vials containing 4 g of diphenyloxazole (PPO), 0.2 g of diphenyloxazoil benzene (POPOP), and 1 L of toluene.
(§4) The effect of the test compounds on the binding of [^3H]

[3] = biological target: T2, NMDA receptor peripheral site ([3H]ifenprodil) (Rattus norvegicus, UniProt P35439+Q00960); experiment: Radioligand binding, [3H]ifenprodil site of the NMDA receptor
T2 construct: from tissue; host or cells: rat brain membranes
T2 sequence (Q00960 27-1482, other chains not shown): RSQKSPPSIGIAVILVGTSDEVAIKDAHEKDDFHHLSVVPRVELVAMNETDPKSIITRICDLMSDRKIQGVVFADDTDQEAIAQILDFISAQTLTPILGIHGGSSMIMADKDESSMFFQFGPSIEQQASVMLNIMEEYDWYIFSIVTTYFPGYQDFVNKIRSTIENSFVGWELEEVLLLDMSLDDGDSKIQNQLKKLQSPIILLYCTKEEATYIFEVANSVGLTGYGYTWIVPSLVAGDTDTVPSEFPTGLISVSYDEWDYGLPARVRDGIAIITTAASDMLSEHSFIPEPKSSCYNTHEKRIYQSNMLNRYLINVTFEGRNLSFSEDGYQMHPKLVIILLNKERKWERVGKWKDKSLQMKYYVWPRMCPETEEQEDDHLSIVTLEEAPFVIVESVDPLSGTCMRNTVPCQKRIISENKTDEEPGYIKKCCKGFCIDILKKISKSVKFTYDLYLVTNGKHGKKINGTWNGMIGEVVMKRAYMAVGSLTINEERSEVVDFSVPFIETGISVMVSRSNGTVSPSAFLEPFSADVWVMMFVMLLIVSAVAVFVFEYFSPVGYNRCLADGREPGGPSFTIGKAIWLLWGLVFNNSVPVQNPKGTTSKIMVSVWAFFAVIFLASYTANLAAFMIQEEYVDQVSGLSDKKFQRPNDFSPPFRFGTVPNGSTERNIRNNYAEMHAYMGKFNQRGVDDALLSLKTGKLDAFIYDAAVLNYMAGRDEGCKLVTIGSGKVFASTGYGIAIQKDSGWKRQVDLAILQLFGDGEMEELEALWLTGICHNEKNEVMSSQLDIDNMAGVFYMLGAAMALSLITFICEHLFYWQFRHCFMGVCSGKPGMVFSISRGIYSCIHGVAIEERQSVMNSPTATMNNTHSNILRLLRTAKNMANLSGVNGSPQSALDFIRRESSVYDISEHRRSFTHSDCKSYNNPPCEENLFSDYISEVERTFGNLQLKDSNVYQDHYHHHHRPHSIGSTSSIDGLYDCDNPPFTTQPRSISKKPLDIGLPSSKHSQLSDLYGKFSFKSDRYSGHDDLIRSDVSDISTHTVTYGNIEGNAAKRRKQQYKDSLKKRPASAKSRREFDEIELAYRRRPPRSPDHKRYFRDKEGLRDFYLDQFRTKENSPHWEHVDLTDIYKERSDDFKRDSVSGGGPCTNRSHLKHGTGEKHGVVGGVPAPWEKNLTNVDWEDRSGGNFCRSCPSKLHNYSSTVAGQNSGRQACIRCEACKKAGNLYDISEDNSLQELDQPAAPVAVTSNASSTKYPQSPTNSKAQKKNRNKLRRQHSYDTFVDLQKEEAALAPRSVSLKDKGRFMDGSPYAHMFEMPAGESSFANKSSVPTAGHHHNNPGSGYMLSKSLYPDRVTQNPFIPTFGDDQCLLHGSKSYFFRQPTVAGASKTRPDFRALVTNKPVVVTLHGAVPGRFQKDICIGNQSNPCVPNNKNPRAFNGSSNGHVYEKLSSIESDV
Method: as §1, §2, §3, §4

[4] = test system: primary culture of rat cerebellar granule cells (CGC); experiment: Ionomycin-induced toxicity in cerebellar granule cells, MTT assay; format: cell-based; conditions: ionomycin 3 µM
Method: (§5) This neurotoxicity model reflects the calcium stress involved with several types of insults, such as amyloid toxicity, excitotoxicity, and ischemic damage. The viability of the primary culture of rat cerebellar granule cells (CGC) and brain cortical neurons (BCN) was assessed by the MTT assay in the presence of various concentrations of compound 4i.
(§6) Cerebellar granule cells (CGC) and brain cortical neurons (BCN) were isolated from P-7 or P0-2 rat’s pups, respectively, using a previously described protocol. Once removed, cerebella or brain cortex were digested for 15 min in 0.025% type II trypsin (w/v) at 37 °C. Ice-cold DMEM containing 5% (w/v) fetal bovine serum was added to inactivate the trypsin. […] After 8-10 day in culture the cells were incubated with a test compound or an equal volume of the DMSO (<1% (v/v) of the whole volume of the medium under the layer of cells and 3 µM ionomycin for 24 h. The cell viability was then evaluated as the dehydrogenase activity with the 3-(4,5-dimethylthiazol-2-yl)-2,5-diphenyltetrazolium bromide (MTT) assay. The absorbance was measured at 570 nm using a Victor microplate reader (Perkin Elmer), and data were normalized with intact control assumed 100%.

[5] = test system: rat cerebellar granule cells (CGC) and brain cortical neurons (BCN); experiment: Viability of CGC and BCN with the compound alone, MTT assay; format: cell-based; conditions: various concentrations
Method: as §5, §6

[6] = test system: rat brain cortical neurons (BCN); experiment: Ionomycin-induced toxicity in brain cortical neurons, MTT assay; format: cell-based; conditions: ionomycin 1 µM
Method: as §5
Cerebellar granule cells (CGC) and brain cortical neurons (BCN) were isolated from P-7 or P0-2 rat’s pups, respectively, using a previously described protocol. Once removed, cerebella or brain cortex were digested for 15 min in 0.025% type II trypsin (w/v) at 37 °C. Ice-cold DMEM containing 5% (w/v) fetal bovine serum was added to inactivate the trypsin. The crude cell suspension was centrifuged, and the cell pellet was resuspended in Neurobasal with 2% (v/v) B27 supplemented with 15% (v/v) fetal bovine serum (FBS), 100 U/mL penicillin, and […] streptomycin. The cells were cultured in a humidified, 5% (v/v) CO2-controlled environment at 37 °C. […] The cell viability was then evaluated as the dehydrogenase activity with the 3-(4,5-dimethylthiazol-2-yl)-2,5-diphenyltetrazolium bromide (MTT) assay. The absorbance was measured at 570 nm using a Victor microplate reader (Perkin Elmer), and data were normalized with intact control assumed 100%.

[7] = test system: isolated rat liver mitochondria; experiment: Oxygen consumption rate of mitochondria (Seahorse flux analyzer); format: biochemical; conditions: nanomolar concentrations; complex I substrates (glutamate and malate) and in the presence of rotenone
Method: Meanwhile, compound 4i can stimulate respiration of isolated rat liver mitochondria, which was estimated using an XFe96 Seahorse extracellular flux analyzer (Figure 5).
Analysis was based on the fluorometric determination of O2 and H^+ levels with solid-state probes on a sensor cartridge. The oxygen consumption rate (OCR) was measured successively in the presence of RC substrates and then after the addition of ADP (phosphorylating respiration), ATP synthase F^o-subunit inhibitor oligomycin (proton leak), oxidative phosphorylation uncoupler FCCP (maximal respiration), and the corresponding inhibitors of respiration chain complexes (non-mitochondrial respiration) (Figure 5a).
The oxygen consumption was measured using a Seahorse XF96 flux analyzer on mitochondria respiring on glutamate (5 mM) and malate (5 mM), according the same protocol as with a correction to a 96-well instead of a 24-well plate. Respiration by rat liver mitochondria (5 µg/well) was sequentially measured in a coupled state with substrates of complex I (basal respiration); followed by phosphorylating respiration after the addition of ADP; non-phosphorylating or resting respiration induced with the addition of oligomycin; uncoupled respiration stimulated by the addition of FCCP; and finally, non-mitochondrial respiration after the addition of the inhibitor of complex I rotenone.

[8] = test system: isolated rat liver mitochondria; experiment: Mitochondrial membrane potential and calcium-induced depolarization (safranine O); format: biochemical; conditions: complex I inhibitor rotenone and a substrate of RC complex II
[9] = cited from earlier work

Row | SMILES | AChE inhibition constant αKi (noncompetitive component) [1] [µM] | Ki [1] [µM] | Mechanism of AChE inhibition [1] | IC50 [2] [µM] | IC50 [3] [µM] | Protection from ionomycin-induced toxicity, CGC [4] | Effect on formazan formation in the MTT assay (toxicity to cells) [5] | Protection from ionomycin-induced toxicity, BCN [6] | Phosphorylating respiration and maximal respiration (OCR) [7] | Effect on mitochondrial membrane potential at 1 μM, rotenone and complex II substrate [8] | Redox potential [9] [mV]
1 | Cc1ccc2c(c1)c1c(n2CCC(=O)N2c3ccc(N(C)C)cc3Sc3cc(N(C)C)ccc32)CCCC1 [Compound 4c] | 5.83 ± 0.31 | 1.98 ± 0.17 | mixed type inhibition |  |  |  |  |  |  |  | 
2 | CN(C)c1ccc2c(c1)Sc1cc(N(C)C)ccc1N2C(=O)CCn1c2c(c3cc(OC(F)(F)F)ccc31)CCCC2 [Compound 4h] |  |  |  | 116 ± 10.1 | 61.3 ± 6.5 |  |  |  |  |  | 
3 | CC1CCc2c(c3cc(OC(F)(F)F)ccc3n2CCC(=O)N2c3ccc(N(C)C)cc3Sc3cc(N(C)C)ccc32)C1 (centres unmarked) [Compound 4i] | 3.19 ± 0.10 | 1.12 ± 0.05 | mixed type inhibition | 101 ± 9.2 | 10.4 ± 1.2 | statistically significant protection | did not affect formazan formation | statistically significant protection | statistically significant increase |  | 
4 | CN(C)c1ccc2c(c1)Sc1cc(N(C)C)ccc1N2C(=O)CCn1c2c(c3ccccc31)CCCCCC2 [Compound 4m] | 4.03 ± 0.15 | 1.06 ± 0.04 | mixed type inhibition |  |  |  |  |  |  | induced mitochondrial depolarization | 
5 | CN(C)c1ccc2nc3ccc(=[N+](C)C)cc-3sc2c1 [MB, Methylene blue, reference compound] |  |  |  |  |  |  |  |  |  | induced mitochondrial depolarization | 11
